What follows are compounds tested against T1, hAR (human androgen receptor, baculovirus/Sf9 generated extracts) (Homo sapiens, UniProt P10275) (assay: AR Binding Assay (competitive binding with 3H-DHT tracer)). Conditions: AR Binding IC50, hAR extract, 1 nM 3H-DHT, one hour at 4° C.; mean of multiple tests.
T1 construct: made in house; host or cells: baculovirus/Sf9 insect cells (crude extract)
T1 sequence (P10275 1-920): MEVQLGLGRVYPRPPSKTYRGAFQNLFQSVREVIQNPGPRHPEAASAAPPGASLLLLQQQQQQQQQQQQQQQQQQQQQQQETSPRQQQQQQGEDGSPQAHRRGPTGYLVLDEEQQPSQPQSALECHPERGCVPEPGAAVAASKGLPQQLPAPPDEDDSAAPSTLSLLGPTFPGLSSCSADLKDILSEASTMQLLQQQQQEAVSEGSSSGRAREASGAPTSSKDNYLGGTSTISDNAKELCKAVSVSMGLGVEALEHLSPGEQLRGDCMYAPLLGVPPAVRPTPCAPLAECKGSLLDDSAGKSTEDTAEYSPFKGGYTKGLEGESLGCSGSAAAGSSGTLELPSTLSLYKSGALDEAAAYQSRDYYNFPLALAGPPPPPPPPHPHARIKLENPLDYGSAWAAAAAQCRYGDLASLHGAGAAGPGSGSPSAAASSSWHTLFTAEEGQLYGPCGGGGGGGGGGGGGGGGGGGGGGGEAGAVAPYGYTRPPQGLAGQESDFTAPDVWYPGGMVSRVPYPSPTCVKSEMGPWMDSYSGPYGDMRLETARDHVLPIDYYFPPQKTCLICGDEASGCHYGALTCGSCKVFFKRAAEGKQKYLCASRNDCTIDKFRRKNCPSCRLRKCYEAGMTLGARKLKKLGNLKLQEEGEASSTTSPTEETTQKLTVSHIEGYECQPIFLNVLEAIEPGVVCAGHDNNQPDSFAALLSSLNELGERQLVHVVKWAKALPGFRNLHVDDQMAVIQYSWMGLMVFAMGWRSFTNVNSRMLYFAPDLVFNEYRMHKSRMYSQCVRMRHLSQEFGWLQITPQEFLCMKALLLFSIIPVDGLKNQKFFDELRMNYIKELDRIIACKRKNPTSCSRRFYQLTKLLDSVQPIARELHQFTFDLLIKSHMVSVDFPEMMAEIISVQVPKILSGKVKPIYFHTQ
Summary of the method: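 Compounds at decreasing concentrations were incubated with baculovirus/Sf9 hAR extract, hydroxylapatite and 1 nM ^3H-DHT for one hour at 4° C., then washed three times. The value is the compound concentration inhibiting half of maximum ^3H-DHT binding, reported as the mean of multiple tests.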

Compound	IC50 [nM]
CC(C)CC(Oc1ccc(C#N)c(C(F)(F)F)c1)c1cccc(O)c1 (single isomer, unassigned; (+)) [Example 21, (+)4-[1-(3-Hydroxyphenyl)-3-methylbutoxy]-2-(trifluoromethyl)benzonitrile]	66
C=CCC(Oc1ccc(C#N)c(C(F)(F)F)c1)c1cccc(O)c1 (single isomer, unassigned; (-)) [Example 19, (−)4-{[1-(3-Hydroxyphenyl)but-3-enyl]oxy}-2-(trifluoromethyl)benzonitrile]	185
CCC(Oc1ccc(C#N)c(C(F)(F)F)c1)c1ccccn1 (stereo not drawn) [Example 79, 4-(1-Pyridin^−2-yl-propoxy)-2-trifluoromethyl-benzonitrile]	148
Cc1ccc(C(CC(C)C)Oc2ccc(C#N)c(C(F)(F)F)c2)cn1 (stereo not drawn) [Example 89, 4-[3-Methyl-1-(6-methyl-pyridin-3-yl)-butoxy]-2-trifluoromethyl-benzonitrile]	137
CC(C)CC(Oc1ccc(C#N)c(C(F)(F)F)c1)c1cccnc1 (stereo not drawn) [Example 88, 4-(3-Methyl-1-pyridin-3-yl-butoxy)-2-trifluoromethyl-benzonitrile]	218
N#Cc1ccc(OCc2cccc(O)c2)cc1C(F)(F)F [Example 6, 4-[(3-Hydroxybenzyl)oxy]-2-(trifluoromethyl)benzonitrile]	12
CC(Oc1ccc(C#N)c(C(F)(F)F)c1)c1cccc(O)c1 (single isomer, unassigned; (-)) [Example 9, (−)-4-[1-(3-Hydroxyphenyl)ethoxy]-2-(trifluoromethyl)benzonitrile]	56
CC(Oc1ccc(C#N)c(C(F)(F)F)c1)c1ccccc1 (racemic) [Example 1, 4-(1-Phenyl-ethoxy)-2-trifluoromethyl-benzonitrile]	10
CCCC(Oc1ccc(C#N)c(C(F)(F)F)c1)c1cccc(O)c1 (racemic) [Example 14, 4-[1-(3-Hydroxyphenyl)butoxy]-2-(trifluoromethyl)benzonitrile]	18
CCCC(Oc1ccc(C#N)c(C(F)(F)F)c1)c1cccc(O)c1 (single isomer, unassigned; (+)) [Example 15, (+)4-[1-(3-Hydroxyphenyl)butoxy]-2-(trifluoromethyl)benzonitrile]	20

Same assay, conditions: hAR extract, 1 nM 3H-DHT, one hour at 4° C.; mean of multiple tests; read-out: AR Binding IC50

Compound	IC50 [nM]
CC(Oc1ccc(C#N)c(C(F)(F)F)c1)c1cncc(O)c1 (single isomer, unassigned; (+)) [Example 74, (+)4-[1-(5-Hydroxypyridin-3-yl)ethoxy]-2-(trifluoromethyl)benzonitrile]	35
COc1cccc(C(C)Oc2ccc(C#N)c(C(F)(F)F)c2)n1 (stereo not drawn) [Example 80, 4-[1-(6-Methoxy-pyridin-2-yl)-ethoxy]-2-trifluoromethyl-benzonitrile]	120
